Reference: patent US9422293B2 (priority 2006, dated 2016)
Counter-ions that a name gives are not always drawn.

Target: rat TRPV1 (Rattus norvegicus (Rat), UniProt O35433)
Conditions: read-out: Rat IC50

rat TRPV1, sequence (O35433 whole entry): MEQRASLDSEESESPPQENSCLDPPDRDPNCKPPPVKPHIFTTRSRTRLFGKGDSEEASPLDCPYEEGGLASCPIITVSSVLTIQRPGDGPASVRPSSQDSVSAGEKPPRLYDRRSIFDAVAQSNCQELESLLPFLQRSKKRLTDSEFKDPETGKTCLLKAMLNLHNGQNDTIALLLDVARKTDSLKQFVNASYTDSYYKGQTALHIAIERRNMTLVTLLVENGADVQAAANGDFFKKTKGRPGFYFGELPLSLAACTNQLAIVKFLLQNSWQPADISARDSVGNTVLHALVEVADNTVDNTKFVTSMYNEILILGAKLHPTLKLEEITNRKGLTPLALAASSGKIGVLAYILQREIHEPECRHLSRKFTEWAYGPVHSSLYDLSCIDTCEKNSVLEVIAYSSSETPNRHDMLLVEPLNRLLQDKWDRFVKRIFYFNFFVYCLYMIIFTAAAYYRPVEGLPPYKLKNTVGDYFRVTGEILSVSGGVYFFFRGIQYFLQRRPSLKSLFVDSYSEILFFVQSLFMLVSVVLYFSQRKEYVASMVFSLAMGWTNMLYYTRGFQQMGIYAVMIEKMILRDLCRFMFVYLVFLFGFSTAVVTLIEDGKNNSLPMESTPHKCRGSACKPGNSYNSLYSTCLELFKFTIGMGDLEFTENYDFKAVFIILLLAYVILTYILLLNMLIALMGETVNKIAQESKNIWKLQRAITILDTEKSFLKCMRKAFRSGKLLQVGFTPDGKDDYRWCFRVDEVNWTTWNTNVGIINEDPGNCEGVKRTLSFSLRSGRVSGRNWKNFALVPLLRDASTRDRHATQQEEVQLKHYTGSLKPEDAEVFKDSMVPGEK

| SMILES | IC50 [nM] |
| --- | --- |
| CC(O)(c1ccc(Nc2nc(N3CCCCC3)nc3c2CCN(c2ncccc2C(F)(F)F)CC3)cc1)C(F)(F)F (stereo not drawn) [Example 180, 1,1,1-Trifluoro-2-[4-({2-piperidin-1-yl-7-[3-(trifluoromethyl)pyridin-2-yl]-6,7,8,9-tetrahydro-5H-pyrimido[4,5-d]azepin-4-yl}amino)phenyl]propan-2-ol] | > 6670 |
| CC(C)(C(=O)O)c1ccc(Nc2nc(N3CCOCC3)nc3c2CCN(c2ncccc2C(F)(F)F)CC3)cc1 [Example 392, 2-Methyl-2-{4-[2-morpholin-4-yl-7-(3-trifluoromethyl-pyridin-2-yl)-6,7,8,9-tetrahydro-5H-pyrimido[4,5-d]azepin-4-ylamino]-phenyl}-propionic acid] | 1540 |
| O=C1CN(c2nc3c(c(Nc4ccc(C(F)(F)F)cc4)n2)CCN(c2ncccc2C(F)(F)F)CC3)CCN1 [Example 90B, 4-[4-(4-Trifluoromethyl-phenylamino)-7-(3-trifluoromethyl-pyridin-2-yl)-6,7,8,9-tetrahydro-5H-pyrimido[4,5-d]azepin-2-yl]-piperazin-2-one trifluoroacetic acid salt] | > 6700 |
| Cc1cc(C(F)(F)F)ccc1Nc1nc(OC(C)C2CCCCC2)nc2c1CCN(c1ncccc1C(F)(F)F)CC2 (stereo not drawn) [Example 309, 2-[(1-Cyclohexylethyl)oxy]-N-[2-methyl-4-(trifluoromethyl)phenyl]-7-[3-(trifluoromethyl)pyridin-2-yl]-6,7,8,9-tetrahydro-5H-pyrimido[4,5-d]azepin-4-amine] | 1420 |
| Cc1cc(C(F)(F)F)ccc1Nc1nc(SC(C)C)nc2c1CCN(c1ncccc1C(F)(F)F)CC2 [Example 366, 2-[(1-Methylethyl)sulfanyl]-N-[2-methyl-4-(trifluoromethyl)phenyl]-7-[3-(trifluoromethyl)pyridin-2-yl]-6,7,8,9-tetrahydro-5H-pyrimido[4,5-d]azepin-4-amine] | 130 |
| CC(C)c1nc2c(c(Nc3ccc(C(F)(F)F)cc3F)n1)CCN(c1ncccc1C(F)(F)F)CC2 [Example 155, N-[2-Fluoro-4-(trifluoromethyl)phenyl]-2-(1-methylethyl)-7-[3-(trifluoromethyl)pyridin-2-yl]-6,7,8,9-tetrahydro-5H-pyrimido[4,5-d]azepin-4-amine] | 3280 |
| CC(C)NS(=O)(=O)c1cccnc1N1CCc2nc(N3CCCCC3)nc(Nc3ccc(C(F)(F)F)cc3)c2CC1 [Example 300, N-(1-Methylethyl)-2-(2-piperidin-1-yl-4-{[4-(trifluoromethyl)phenyl]amino}-5,6,8,9-tetrahydro-7H-pyrimido[4,5-d]azepin-7-yl)pyridine-3-sulfonamide] | 2000 |
| Cc1nc2ccccc2nc1N1CCc2nc(C(C)C)nc(Nc3ccc(C(C)(C)C)cc3)c2CC1 [Example 33, (4-tert-Butyl-phenyl)-[2-isopropyl-7-(3-methyl-quinoxalin-2-yl)-6,7,8,9-tetrahydro-5H-pyrimido[4,5-d]azepin-4-yl]-amine] | 110 |
| CC(C)c1nc2c(c(NCc3c(Cl)cccc3Cl)n1)CCN(c1ncccc1C(F)(F)F)CC2 [Example 120, N-[(2,6-Dichlorophenyl)methyl]-2-(1-methylethyl)-7-[3-(trifluoromethyl)pyridin-2-yl]-6,7,8,9-tetrahydro-5H-pyrimido[4,5-d]azepin-4-amine] | 12000 |
| CC(C)Oc1nc2c(c(Nc3ccc(C(F)(F)F)cc3)n1)CCN(c1ncccc1C(F)(F)F)CC2 [Example 341, 2-[(1-Methylethyl)oxy]l-N-[4-(trifluoromethyl)phenyl]-7-[3-(trifluoromethyl)pyridin-2-yl]-6,7,8,9-tetrahydro-5H-pyrimido[4,5-d]azepin-4-amine trifluoroacetic acid salt] | 150 |
| CC(C)Sc1nc2c(c(Nc3ccc(S(=O)(=O)C(F)(F)F)cc3)n1)CCN(c1ncccc1C(F)(F)F)CC2 [Example 361, 2-[(1-Methylethyl)sulfanyl]-7-[3-(trifluoromethyl)pyridin-2-yl]-N-{4-[(trifluoromethyl)sulfonyl]phenyl}-6,7,8,9-tetrahydro-5H-pyrimido[4,5-d]azepin-4-amine] | 1530 |
| COCc1nc2c(c(Nc3ccc(C(C)(C)C)cc3)n1)CCN(c1ncccc1C(F)(F)F)CC2 [Example 67B, (4-tert-Butyl-phenyl)-[2-methoxymethyl-7-(3-trifluoromethyl-pyridin-2-yl)-6,7,8,9-tetrahydro-5H-pyrimido[4,5-d]azepin-4-yl]-amine trifluoroacetic acid salt] | 34 |
| Nc1nc2c(c(Nc3ccc(C(F)(F)F)cc3)n1)CCN(c1ncccc1C(F)(F)F)CC2 [Example 51, N^4-(4-Trifluoromethyl-phenyl)-7-(3-trifluoromethyl-pyridin-2-yl)-6,7,8,9-tetrahydro-5H-pyrimido[4,5-d]azepine-2,4-diamine] | 1200 |
| FC(F)(F)c1ccc(Nc2nc(OC3CCCCC3)nc3c2CCN(c2ncccc2C(F)(F)F)CC3)cc1 [Example 338, 2-(Cyclohexyloxy)-N-[4-(trifluoromethyl)phenyl]-7-[3-(trifluoromethyl)pyridin-2-yl]-6,7,8,9-tetrahydro-5H-pyrimido[4,5-d]azepin-4-amine] | 400 |
| FC(F)(F)c1ccc(Nc2nc(N3CCCCCC3)nc3c2CCN(c2ncccc2C(F)(F)F)CC3)cn1 [Example 223, 2-Azepan-1-yl-7-[3-(trifluoromethyl)pyridin-2-yl]-N-[6-(trifluoromethyl)pyridin-3-yl]-6,7,8,9-tetrahydro-5H-pyrimido[4,5-d]azepin-4-amine] | 30 |
| FC(F)(F)c1ccc(Nc2nc(N3CCN(Cc4ccccc4)CC3)nc3c2CCN(c2ncccc2C(F)(F)F)CC3)cc1 [Example 102, [2-(4-Benzyl-piperazin-1-yl)-7-(3-trifluoromethyl-pyridin-2-yl)-6,7,8,9-tetrahydro-5H-pyrimido[4,5-d]azepin-4-yl]-(4-trifluoromethyl-phenyl)-amine] | 170 |
| O=S(=O)(c1ccc(Nc2nc(OC3CCOCC3)nc3c2CCN(c2ncccc2C(F)(F)F)CC3)cc1)N1CCCC1 [Example 335, N-[4-(Pyrrolidin-1-ylsulfonyl)phenyl]-2-(tetrahydro-2H-pyran-4-yloxy)-7-[3-(trifluoromethyl)pyridin-2-yl]-6,7,8,9-tetrahydro-5H-pyrimido[4,5-d]azepin-4-amine] | 150 |
| CN(C)S(=O)(=O)c1ccc(Nc2nc(N3CCCCC3)nc3c2CCN(c2ncccc2C(F)(F)F)CC3)cc1 [Example 158, N,N-Dimethyl-4-({2-piperidin-1-yl-7-[3-(trifluoromethyl)pyridin-2-yl]-6,7,8,9-tetrahydro-5H-pyrimido[4,5-d]azepin-4-yl}amino)benzenesulfonamide] | 60 |
| FC(F)(F)c1ccc(Nc2nc(NCC3CCCCC3)nc3c2CCN(c2ncccc2C(F)(F)F)CC3)cn1 [Example 270, N^2-(Cyclohexylmethyl)-7-[3-(trifluoromethyl)pyridin-2-yl]-N^4-[6-(trifluoromethyl)pyridin-3-yl]-6,7,8,9-tetrahydro-5H-pyrimido[4,5-d]azepine-2,4-diamine] | 830 |
| CN1CCN(c2nc3c(c(Nc4ccc(C(F)(F)F)cc4)n2)CCN(c2ncccc2C(F)(F)F)CC3)CC1 [Example 92B, [2-(4-Methyl-piperazin-1-yl)-7-(3-trifluoromethyl-pyridin-2-yl)-6,7,8,9-tetrahydro-5H-pyrimido[4,5-d]azepin-4-yl]-(4-trifluoromethyl-phenyl)-amine trifluoroacetic acid salt] | 270 |
| CN(C)c1nc2c(c(NCc3ccccc3)n1)CCN(c1ncccc1C(F)(F)F)CC2 [Example 70B, N^4-Benzyl-N^2,N^2-dimethyl-7-(3-trifluoromethyl-pyridin-2-yl)-6,7,8,9-tetrahydro-5H-pyrimido[4,5-d]azepine-2,4-diamine trifluoroacetic acid salt] | 4400 |
| CC(C)c1nc2c(c(Nc3ccc(C(C)(C)C)c(N)c3)n1)CCN(c1ncccc1C(F)(F)F)CC2 [Example 199, 4-(1,1-Dimethylethyl)-N1-{2-(1-methylethyl)-7-[3-(trifluoromethyl)pyridin-2-yl]-6,7,8,9-tetrahydro-5H-pyrimido[4,5-d]azepin-4-yl}benzene-1,3-diamine] | 1360 |
| FC(F)(F)c1ccc(Nc2nc(N3CCC3)nc3c2CCN(c2ncccc2C(F)(F)F)CC3)nc1 [Example 197, 2-Azetidin-1-yl-7-[3-(trifluoromethyl)pyridin-2-yl]-N-[5-(trifluoromethyl)pyridin-2-yl]-6,7,8,9-tetrahydro-5H-pyrimido[4,5-d]azepin-4-amine trifluoroacetic acid salt] | 150 |
| N#Cc1cccnc1N1CCc2ncnc(Nc3ccc(C(F)(F)F)cc3)c2CC1 [Example 293, 2-(4-{[4-(Trifluoromethyl)phenyl]amino}-5,6,8,9-tetrahydro-7H-pyrimido[4,5-d]azepin-7-yl)pyridine-3-carbonitrile] | 3490 |
| COCCN(C)c1nc2c(c(Nc3ccc(C(F)(F)F)c(Cl)c3)n1)CCN(c1ncccc1C(F)(F)F)CC2 [Example 229, N^4-[3-Chloro-4-(trifluoromethyl)phenyl]-N^2-methyl-N^2-[2-(methyloxy)ethyl]-7-[3-(trifluoromethyl)pyridin-2-yl]-6,7,8,9-tetrahydro-5H-pyrimido[4,5-d]azepine-2,4-diamine trifluoroacetic acid salt] | 60 |
| CCS(=O)(=O)c1cccnc1N1CCc2nc(N3CCCCC3)nc(Nc3ccc(C(F)(F)F)cc3)c2CC1 [Example 297, 7-[3-(Ethylsulfonyl)pyridin-2-yl]-2-piperidin-1-yl-N-[4-(trifluoromethyl)phenyl]-6,7,8,9-tetrahydro-5H-pyrimido[4,5-d]azepin-4-amine] | 1080 |

Same assay, conditions: read-out: Rat IC50; hydrochloride salt

| SMILES | IC50 [nM] |
| --- | --- |
| FC(F)(F)c1ccc(Nc2ncnc3c2CCN(c2ncccc2C(F)(F)F)CC3)cc1 [Example 2A, (4-Trifluoromethyl-phenyl)-[7-(3-trifluoromethyl-pyridin-2-yl)-6,7,8,9-tetra-hydro-5H-pyrimido[4,5-d]azepin-4-yl]-amine hydrochloride salt] | 420 |
